In ChEMBL document CHEMBL3217735, “Polyamine-based small molecule epigenetic modulators” (Medchemcomm, 2012):
Blank lines part the entries; values can stand above or below the compound they belong to.

Experiments:
[1] = target: Lysine-specific histone demethylase 1A (Homo sapiens) (UniProt O60341); assay: Inhibition of N-terminal His6-tagged full length human LSD1 expressed in Escherichia coli BL21 (DE3) using H3K4me2 (1 to 21 amino acids) as substrate assessed as production of H2O2 at 1 uM by luminol-dependent chemiluminescence assay relative to control
MCF7 = assay: Cytotoxicity against human MCF7 cells after 96 hrs by MTA reduction assay; type: functional, cell-based; conditions: MCF7, 96 h
[2] = Cytotoxicity against human MCF10A cells after 96 hrs by MTA reduction assay; type: ADME, cell-based; conditions: MCF-10A
[3] = Selectivity ratio of IC50 for human MCF10A cells to IC50 for human MCF7 cells; type: ADME, cell-based, MCF-10A; conditions: MCF10A cells versus MCF7 cells, read-out: Ratio IC50
[4] = target: Histone deacetylase (Homo sapiens) (UniProt Q13547+O15379+Q9UBN7+Q92769+Q9UQL6+Q8WUI4+Q9BY41+Q96DB2+P56524+Q9UKV0+Q969S8); assay: Inhibition of HDAC in human HeLa cells using Fluor de Lys as substrate at 1 uM by fluorescence assay relative to control; type: cell-based

inhibition [1]: 85.1%
SMILES: C/N=C(\NC)NCCCNCCCNCCCN/C(=N/C)NC

SMILES: Cc1ccc(CNCCCCNCCCCCC(=O)NCc2ccc(C(=O)Nc3ccccc3N)cc2)cc1
IC50 (MCF7): 0.9 µM | IC50 [2]: 24 µM | selectivity ratio [3]: > 25

inhibition [4]: 60%
SMILES: CN(C)c1ccc(CN(CCCNCCCCN)C(=O)CCCCC(=O)NO)cc1
